We go through seven molecules from ChEMBL document CHEMBL3044610, “Khayanolides, rearranged phragmalin limonoid antifeedants from Khaya senegalensis” (Tetrahedron, 2001).

Activity calls are given as the source filed them. The rule behind the calls is not given here.

Holding throughout (assay type): functional, organism-based
Assay [1] has as its system Spodoptera littoralis. Kind of assay: Antifeedant activity against third-instar larva of Spodoptera littoralis fed on compound-treated Chinese cabbage leaf at 500 ppm by leaf-disk method.
For assay [2], the system named is Spodoptera littoralis. The assay is described as follows: Antifeedant activity against third-instar larva of Spodoptera littoralis fed on compound-treated Chinese cabbage leaf at 300 ppm by leaf-disk method.
In assay [3] the test system is Spodoptera littoralis. The assay is described as follows: Antifeedant activity against third-instar larva of Spodoptera littoralis fed on compound-treated Chinese cabbage leaf at 1000 ppm by leaf-disk method.

For `C=C1[C@@H]2CC[C@@]3(C)[C@H](c4ccoc4)OC(=O)C[C@]13O[C@H]1CC(=O)C(C)(C)[C@H](C(OC(C)=O)C(=O)OC)[C@]12C` (some centres not stated), the result in assay [1] was Active. With `COC(=O)[C@H](O)[C@H]1[C@]2(C)C[C@]3(O)[C@H](C(=O)[C@H]2O)[C@]24O[C@]25CC(=O)O[C@H](c2ccoc2)[C@]5(C)CC[C@@H]4[C@]13C`, in assay [2], the result was Active. In the case of `CC1(C)C(=O)[C@@H]2C[C@@]34O[C@]2(O)[C@]2(COC(=O)C[C@@H]12)[C@H]3CC[C@]1(C)[C@H]4CC(=O)O[C@H]1c1ccoc1`, in assay [2], the outcome was Active. In the case of `C=C1[C@@H]2CC[C@@]3(C)[C@H](c4ccoc4)OC(=O)C[C@]13O[C@H]1CC(=O)C(C)(C)[C@H](C(O)C(=O)OC)[C@]12C` (some centres not stated), in assay [1], the outcome was Active.

As to `C=C1[C@@H]2CC[C@@]3(C)[C@H](c4ccoc4)OC(=O)C[C@]13O[C@H]1CC(=O)C(C)(C)[C@H](CC(=O)OC)[C@]12C`, in assay [1], the outcome was Active. On the same count and under the same terms, the value for `COC(=O)[C@H](O)[C@H]1[C@@]2(C)C[C@]3(O)[C@H]4[C@@H](O[C@]56CC(=O)O[C@H](c7ccoc7)[C@]5(C)CC[C@H]([C@]13C)[C@]46O)[C@H]2O` was “Active”. On to `COC(=O)[C@H](O)[C@H]1[C@]2(C)C[C@]3(O)[C@@H](C(=O)[C@H]2O)[C@]2(O)C4=CC(=O)O[C@@H](c5ccoc5)[C@]4(C)CC[C@@H]2[C@]13C`, for which, in assay [3], the outcome was Active.
